Results as given in US20100305134A1, “SPECIFIC INHIBITORS OF PTERIDINE REDUCTASE WITH ANTIPARASITIC ACTION” (priority 2007, published 2010).
Like-named read-outs stand apart in the source and are kept apart here.

Assays:
TcPTR1 = TcPTR1 (Trypanosoma cruzi, UniProt O44029); assay: PTR1 enzyme inhibition (dihydrofolic acid substrate, NADPH cofactor), TcPTR1; assay type: biochemical
Experimental: (§1) The compounds of the invention were tested against the following enzyme library: TcPTR1, LmPTR1, LmDHFR, LcTS, EcTS, CnTS, hTS, DHFR. The proteins were all purified following the known procedures (ref). The enzymes were purified through chromatographic methods that usually require a prepurification step using a ion exchange resin, than the eluted active fractions were pooled and a second purification step follows were a hydrophobic resin and sometimes a gel filtration resin is used as the final step. The protein is characterized using Mass Spectrometry and Specific Activity and concentration is detected. Moreover Km for the substrates is useful to set up the inhibition experiments. In general the protein is stored at −80° C. and defrozen in small quantities when necessary.

LmDHFR = target: T1, LmDHFR (Leishmania major, UniProt P07382); assay: biochemical; conditions: NI means no inhibition at 190 μM; read-out: DHFR Lm Ki
T1 construct: made in house
Experimental: as §1

LmPTR1 = target: T2, LmPTR1 (Leishmania major, UniProt Q01782); assay: biochemical; assay type: biochemical; conditions: NI means no inhibition at 190 μM; read-out: PTR1 Lm Ki
T2 construct: made in house
T2 sequence (Q01782 1-288): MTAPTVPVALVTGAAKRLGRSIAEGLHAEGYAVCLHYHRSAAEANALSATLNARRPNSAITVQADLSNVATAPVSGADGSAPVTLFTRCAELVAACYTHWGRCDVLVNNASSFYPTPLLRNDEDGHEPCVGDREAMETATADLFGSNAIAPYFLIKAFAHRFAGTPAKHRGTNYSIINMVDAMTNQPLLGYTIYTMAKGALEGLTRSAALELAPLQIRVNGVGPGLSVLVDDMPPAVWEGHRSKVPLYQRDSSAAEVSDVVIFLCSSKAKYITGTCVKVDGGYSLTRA
Experimental: The compounds of the invention were tested against the following enzyme library: TcPTR1, LmPTR1, LmDHFR, LcTS, EcTS, CnTS, hTS, DHFR.

Lm TS = target: T3, Lm TS (Leishmania major, UniProt P07382); assay: biochemical; assay type: biochemical
T3 construct: made in house
Experimental: as §1

h DHFR = target: T4, h DHFR (Homo sapiens, UniProt P00374); assay: DHFR enzyme inhibition (standard DHFR assay), human DHFR; assay type: biochemical
T4 construct: made in house
T4 sequence (P00374 1-187): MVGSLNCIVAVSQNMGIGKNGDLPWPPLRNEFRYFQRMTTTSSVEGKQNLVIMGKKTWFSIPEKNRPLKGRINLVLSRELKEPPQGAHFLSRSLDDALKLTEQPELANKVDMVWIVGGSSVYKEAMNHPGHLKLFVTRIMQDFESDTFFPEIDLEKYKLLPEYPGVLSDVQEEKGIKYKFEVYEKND
Experimental: as §1

hTS = target: T5, hTS (Homo sapiens, UniProt P04818); assay: TS enzyme inhibition (standard TS assay), human TS; assay type: biochemical; conditions: NI means no inhibition at 190 μM; read-out: TS h Ki
T5 construct: made in house
Experimental: as §1

[1] = tested on: Tripanosoma cruzi amastigote form; assay: Intracellular growth of Tripanosoma cruzi amastigote form; assay type: cell-based; parameters: unit of the concentration uncertain; conditions: 72 h exposure, control 100
[2] = tested on: PTR1 overexpressing lines; assay: Parasite growth inhibition, PTR1 overexpressing lines; assay type: cell-based; conditions: ratio of EC50 from PTR1 overexpressing lines to EC50 from WT lines
TS = TS enzyme inhibition, three-value table lines (species column not resolvable); assay type: biochemical; conditions: species column (h or Lm) not resolvable; NI means no inhibition at 190 μM, NI marks ⋄ Δ ▴ undefined; read-out: TS Ki (first value of three-value lines)
[3] = NI means no inhibition at 190 μM, read-out: PTR1 Tc Ki
[4] = NI means no inhibition at 190 μM; read-out: TS Lm Ki
[5] = NI means no inhibition at 190 μM, read-out: DHFR h Ki

T3 sequence (P07382 whole entry): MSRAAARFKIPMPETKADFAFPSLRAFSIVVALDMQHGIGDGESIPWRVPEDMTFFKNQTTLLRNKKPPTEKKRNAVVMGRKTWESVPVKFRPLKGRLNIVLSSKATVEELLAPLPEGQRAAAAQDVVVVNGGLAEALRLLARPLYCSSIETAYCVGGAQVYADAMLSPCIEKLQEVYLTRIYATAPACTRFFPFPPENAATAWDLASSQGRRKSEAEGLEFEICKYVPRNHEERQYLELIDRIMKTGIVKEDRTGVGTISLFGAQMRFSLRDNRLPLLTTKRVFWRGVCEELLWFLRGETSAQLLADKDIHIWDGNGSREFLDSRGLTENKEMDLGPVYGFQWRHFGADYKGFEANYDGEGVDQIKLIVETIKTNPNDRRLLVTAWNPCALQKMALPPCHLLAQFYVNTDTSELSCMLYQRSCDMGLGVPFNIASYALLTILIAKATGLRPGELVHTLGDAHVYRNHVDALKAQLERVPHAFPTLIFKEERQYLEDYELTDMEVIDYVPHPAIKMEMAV
T1 sequence (P07382 whole entry): as above
T5 sequence (P04818 whole entry): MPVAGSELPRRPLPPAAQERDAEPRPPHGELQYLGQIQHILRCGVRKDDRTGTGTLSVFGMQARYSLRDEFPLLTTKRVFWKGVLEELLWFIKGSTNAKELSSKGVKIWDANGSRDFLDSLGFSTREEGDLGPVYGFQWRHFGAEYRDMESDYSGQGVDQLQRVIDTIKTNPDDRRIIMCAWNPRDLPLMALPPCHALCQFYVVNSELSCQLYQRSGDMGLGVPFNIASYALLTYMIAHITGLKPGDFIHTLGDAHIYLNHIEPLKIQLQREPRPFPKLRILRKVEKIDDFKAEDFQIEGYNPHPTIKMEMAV
Sequence of TcPTR1 (O44029 entry or part of it): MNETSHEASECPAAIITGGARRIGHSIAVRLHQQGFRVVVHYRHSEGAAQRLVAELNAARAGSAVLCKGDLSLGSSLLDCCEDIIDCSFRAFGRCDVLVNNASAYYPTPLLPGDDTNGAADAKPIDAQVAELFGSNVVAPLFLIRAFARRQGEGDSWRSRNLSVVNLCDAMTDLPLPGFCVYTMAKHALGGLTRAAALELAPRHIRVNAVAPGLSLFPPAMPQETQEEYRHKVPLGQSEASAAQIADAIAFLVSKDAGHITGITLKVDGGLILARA

SMILES	Ki (TcPTR1; [3]) [µM]	Ki (LmDHFR) [µM]	Ki (LmPTR1) [µM]	Ki (Lm TS; [4]) [µM]	Ki (h DHFR; [5]) [µM]	Ki (hTS) [µM]	also measured
CCc1nc(N)nc(N)c1-c1ccc(Cl)cc1 [Pyr, pyrimetamine]	–	–	–	–	–	–	% amastigotes (medium value) ([1]; 10 (unit uncertain)): 37.4%; % amastigotes (medium value) ([1]; 20 (unit uncertain)): 26.3%; RDR [2]: 2.3
CN(Cc1cnc2nc(N)nc(N)c2n1)c1ccc(C(=O)N[C@@H](CCC(=O)O)C(=O)O)cc1 [Mtx, methotrexate]	–	–	–	–	–	–	RDR [2]: 104.1
CN(Cc1cnc2nc(N)nc(N)c2n1)c1ccc(C(=O)NC(CCC(=O)O)C(=O)O)cc1 (stereo not drawn)	–	–	–	–	–	–	Ki (TcPTR1): 0.11 µM
COC(=O)C1CCN(C(=O)c2ccc(N(CCO)Cc3cnc4nc(N)nc(N)c4n3)cc2)CC1	–	–	–	–	–	–	Ki (TS): 64.5 µM
COC(=O)C1CCN(C(=O)c2ccc(N(C)Cc3cnc4nc(N)nc(N)c4n3)cc2)CC1	–	–	–	–	–	–	Ki (Lm TS; read-out: TS Lm Ki; NI means no inhibition at 190 μM): > 190 µM; Ki (h DHFR): 0.8 µM
COC(=O)C1CCN(C(=O)c2ccc(NCc3nc4cc(C(F)(F)F)ccc4nc3-c3ccccc3)cc2)C(C(=O)OC)C1 (stereo not drawn)	40	88	> 190	> 190	> 190	13	–

Second part, led by results:

Ki (TcPTR1; [3]) [µM]	Ki (LmDHFR) [µM]	Ki (LmPTR1) [µM]	Ki (Lm TS; [4]) [µM]	Ki (h DHFR; [5]) [µM]	Ki (hTS) [µM]	SMILES	also measured
7	4	0.1	> 190	10	–	COC(=O)C1CCN(C(=O)c2ccc(NCc3cnc4nc(N)nc(C)c4n3)cc2)CC1	–
38	75	> 190	> 190	24	15	CCOC(=O)c1nc2ccccc2nc1CNc1ccc(C(=O)N2CCC(C(=O)O)CC2C(=O)O)cc1 (stereo not drawn)	–
106	27	6	86	> 190	12	CCOC(=O)C1CCCCN1C(=O)c1ccc(NCc2cnc3ccc(C(F)(F)F)cc3n2)cc1 (stereo not drawn)	–
75	40	7	> 190	56	41	O=C(O)C1CCN(C(=O)c2ccc(NCc3cnc4cccc(C(F)(F)F)c4n3)cc2)CC1	–
20	17	–	> 190	54	13	Cc1cc(C(F)(F)F)cc2nc(-c3ccccc3)c(CNc3ccc(C(=O)N4CCC(C(=O)O)CC4)cc3)nc12	–
